PubChem BioAssay AID248 (DTP/NCI, 2004)
“And” between values parts separate entries of the source, which are not always exact repeats. Identical values can stand only once. Inconclusive results and toxic doses are left out. Rule as the data show it: active = T/C of 150% or more; inactive = T/C below 125%.

System: L1210 leukemia ip in BDF1 mice, survival T/C
Assay: NCI In Vivo Anticancer Drug Screen. Data for tumor model L1210 Leukemia (intraperitoneal) in B6D2F1 (BDF1) mice
Details: endpoint: mean survival time, higher = longer survival
Summary of the method: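 Transplanted-tumor mice were given test agent; controls received vehicle only. Survival readings from the two groups were divided (treated over control).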

[1] = dose: 50.0 mg/kg/injection, schedule: Q01DX009 (ip), vehicle: saline
[2] = dose: 100.0 mg/kg/injection, schedule: Q04DX003 (ip), vehicle: saline
[3] = dose: 100.0 mg/kg/injection, schedule: Q01DX009 (ip), vehicle: Klucel (hydroxypropylcellulose) (HPC)
[4] = dose: 200.0 mg/kg/injection, schedule: Q01DX009 (ip), vehicle: Klucel (hydroxypropylcellulose) (HPC)
[5] = dose: 200.0 mg/kg/injection, schedule: Q04DX003 (ip), vehicle: saline
[6] = dose: 100.0 mg/kg/injection, schedule: Q04DX002 (ip), vehicle: Klucel (hydroxypropylcellulose) (HPC)
[7] = dose: 200.0 mg/kg/injection, schedule: Q04DX002 (ip), vehicle: Klucel (hydroxypropylcellulose) (HPC)
[8] = dose: 400.0 mg/kg/injection, schedule: Q04DX002 (ip), vehicle: Klucel (hydroxypropylcellulose) (HPC)
[9] = dose: 100.0 mg/kg/injection, schedule: Q01DX009 (ip), vehicle: saline
[10] = dose: 200.0 mg/kg/injection, schedule: Q01DX009 (ip), vehicle: saline
[11] = dose: 400.0 mg/kg/injection, schedule: Q01DX009 (ip), vehicle: saline
[12] = dose: 400.0 mg/kg/injection, schedule: Q04DX003 (ip), vehicle: saline

Measured: T/C

N#Cc1cnn(C(N)=S)c1N
inactive: dose: 25.0 mg/kg/injection, schedule: Q01DX009 (ip), vehicle: saline 88 % of control | dose: 25.0 mg/kg/injection, schedule: Q04DX003 (ip), vehicle: saline 94 % of control | [1] 97 % of control | dose: 50.0 mg/kg/injection, schedule: Q04DX003 (ip), vehicle: saline 110 % of control | [2] 98 % of control

CN(CCc1cn(C2OC(CO)C(O)C(O)C2O)cn1)C(=O)/C=C/c1ccccc1 (stereo not drawn)
inactive: dose: 100.0 mg/kg/injection, schedule: Q01DX005 (ip), vehicle: saline 112 % of control

NC(=O)C(O)(C(F)(F)F)C(F)(F)F
inactive: dose: 1.25 mg/kg/injection, schedule: Q01DX009 (ip), vehicle: saline 97 % of control | dose: 2.5 mg/kg/injection, schedule: Q01DX009 (ip), vehicle: saline 111 % of control | dose: 5.0 mg/kg/injection, schedule: Q01DX009 (ip), vehicle: saline 95 % of control | dose: 5.0 mg/kg/injection, schedule: Q04DX003 (ip), vehicle: saline 97 % of control | dose: 10.0 mg/kg/injection, schedule: Q01DX001 (ip), vehicle: saline 102 % of control | dose: 10.0 mg/kg/injection, schedule: Q04DX003 (ip), vehicle: saline 100 % of control | dose: 20.0 mg/kg/injection, schedule: Q01DX001 (ip), vehicle: saline 94 % of control

O=[N+]([O-])c1cc(Cl)ccc1S(=O)(=O)c1ccccc1
inactive: dose: 50.0 mg/kg/injection, schedule: Q01DX009 (ip), vehicle: Klucel (hydroxypropylcellulose) (HPC) 99 % of control | [3] 99 % of control | [4] 108 % of control

C[N+](C)(C)/N=C/C1=C(Cl)CCCC1
inactive: dose: 3.13 mg/kg/injection, schedule: Q04DX002 (ip), vehicle: Klucel (hydroxypropylcellulose) (HPC) 94 % of control | dose: 6.25 mg/kg/injection, schedule: Q04DX002 (ip), vehicle: Klucel (hydroxypropylcellulose) (HPC) 102 % of control | dose: 12.5 mg/kg/injection, schedule: Q04DX002 (ip), vehicle: Klucel (hydroxypropylcellulose) (HPC) 97 % of control | dose: 75.0 mg/kg/injection, schedule: Q01DX001 (ip), vehicle: carboxymethylcellulose (CMC) 114 % of control

CCCC1([N+]2(C)CCCC2)CS(=O)C1CC (stereo not drawn)
inactive: [2] 98 % of control | [5] 93 % of control

O=C(/C=C/c1ccccc1)OCc1ccccc1CN1CCCCC1
inactive: [6] 104 % of control | [7] 96 % of control | [8] 86 % of control

Cc1cc(N)on1
inactive: [9] 97 % of control | [2] 96 % of control | [10] 106 % of control | [5] 101 % of control | [11] 88 % of control | [12] 123 % of control

CCCCC(CCCC)(C(N)=O)C(=O)OCC
inactive: [3] 105 % of control | [4] 100 % of control | dose: 400.0 mg/kg/injection, schedule: Q01DX009 (ip), vehicle: Klucel (hydroxypropylcellulose) (HPC) 94 % of control

Cc1ccc(NC(=O)Oc2ccc(F)cc2)cc1NC(=O)Oc1ccc(F)cc1
inactive: dose: 25.0 mg/kg/injection, schedule: Q01DX009 (ip), vehicle: other 95 % of control | dose: 50.0 mg/kg/injection, schedule: Q01DX009 (ip), vehicle: other 95 % of control | dose: 100.0 mg/kg/injection, schedule: Q01DX009 (ip), vehicle: other 94 % of control and 100 % of control

COc1cccc(CCNC(=O)CCN2C(=O)c3ccccc3C2=O)c1
inactive: dose: 50.0 mg/kg/injection, schedule: Q01DX001 (ip), vehicle: carboxymethylcellulose (CMC) 94 % of control | dose: 100.0 mg/kg/injection, schedule: Q01DX001 (ip), vehicle: carboxymethylcellulose (CMC) 96 % of control | dose: 200.0 mg/kg/injection, schedule: Q01DX001 (ip), vehicle: carboxymethylcellulose (CMC) 100 % of control | dose: 400.0 mg/kg/injection, schedule: Q01DX001 (ip), vehicle: carboxymethylcellulose (CMC) 100 % of control

CCOc1ccccc1NC(=O)Nc1cccc(F)c1
inactive: dose: 100.0 mg/kg/injection, schedule: Q01DX009 (ip), vehicle: saline with Tween-80 104 % of control | dose: 200.0 mg/kg/injection, schedule: Q01DX009 (ip), vehicle: saline with Tween-80 96 % of control | dose: 400.0 mg/kg/injection, schedule: Q01DX009 (ip), vehicle: saline with Tween-80 93 % of control

O=C(O)c1nnc(C(=O)O)nn1
inactive: [1] 96 % of control | [9] 102 % of control and 104 % of control | [2] 100 % of control | [10] 100 % of control and 101 % of control | [5] 103 % of control | [11] 96 % of control | [12] 94 % of control

CCCNP(=O)(NCCC)OC1CC(C)(C)N(O)C(C)(C)C1
inactive: dose: 100.0 mg/kg/injection, schedule: Q04DX002 (ip), vehicle: water 90 % of control | dose: 200.0 mg/kg/injection, schedule: Q04DX002 (ip), vehicle: water 87 % of control | dose: 400.0 mg/kg/injection, schedule: Q04DX002 (ip), vehicle: water 97 % of control

CC(C)NNCCO
inactive: [1] 98 % of control | [9] 103 % of control | [2] 89 % of control | [5] 95 % of control

CCCCCCCCCCC(C)CCCCCCCC (stereo not drawn)
inactive: dose: 100.0 mg/kg/injection, schedule: Q01DX001 (ip), vehicle: saline with Tween-80 113 % of control | dose: 200.0 mg/kg/injection, schedule: Q01DX001 (ip), vehicle: saline with Tween-80 100 % of control | dose: 400.0 mg/kg/injection, schedule: Q01DX001 (ip), vehicle: saline with Tween-80 94 % of control

Cc1ccc2cccnc2c1N (tested in a mixture with another compound)
inactive: dose: 1.56 mg/kg/injection, schedule: Q01DX009 (ip), vehicle: DMSO 101 % of control | dose: 3.12 mg/kg/injection, schedule: Q01DX009 (ip), vehicle: DMSO 97 % of control | dose: 6.25 mg/kg/injection, schedule: Q01DX009 (ip), vehicle: DMSO 95 % of control and 97 % of control | dose: 12.5 mg/kg/injection, schedule: Q01DX009 (ip), vehicle: DMSO 100 % of control | dose: 25.0 mg/kg/injection, schedule: Q01DX009 (ip), vehicle: DMSO 94 % of control and 88 % of control | dose: 25.0 mg/kg/injection, schedule: Q04DX003 (ip), vehicle: DMSO 107 % of control | dose: 50.0 mg/kg/injection, schedule: Q04DX003 (ip), vehicle: DMSO 86 % of control | dose: 100.0 mg/kg/injection, schedule: Q04DX003 (ip), vehicle: DMSO 98 % of control

CCOC(=O)c1ccc(NC(=S)NC(=O)c2cccc3ccccc23)cc1
inactive: dose: 100.0 mg/kg/injection, schedule: Q04DX002 (ip), vehicle: other 91 % of control and 92 % of control | dose: 200.0 mg/kg/injection, schedule: Q04DX002 (ip), vehicle: other 97 % of control and 91 % of control | dose: 400.0 mg/kg/injection, schedule: Q04DX002 (ip), vehicle: other 102 % of control and 91 % of control

CC(=O)C(Br)C(C)=O.CC(=O)C(Br)C(C)=O.CC(=O)C(Br)C(C)=O.[Rh]
inactive: dose: 50.0 mg/kg/injection, schedule: Q01DX001 (ip), vehicle: other 97 % of control | dose: 100.0 mg/kg/injection, schedule: Q01DX001 (ip), vehicle: other 96 % of control | dose: 200.0 mg/kg/injection, schedule: Q01DX001 (ip), vehicle: other 94 % of control | dose: 400.0 mg/kg/injection, schedule: Q01DX001 (ip), vehicle: other 94 % of control

O=C(Nc1cccc2ccccc12)Oc1ccc(C2CCCCC2)cc1
inactive: dose: 100.0 mg/kg/injection, schedule: Q01DX009 (ip), vehicle: carboxymethylcellulose (CMC) 97 % of control and 90 % of control | [6] 89 % of control | dose: 100.0 mg/kg/injection, schedule: Q04DX002 (ip), vehicle: carboxymethylcellulose (CMC) 100 % of control and 101 % of control | dose: 100.0 mg/kg/injection, schedule: Q04DX003 (ip), vehicle: carboxymethylcellulose (CMC) 101 % of control | dose: 200.0 mg/kg/injection, schedule: Q01DX009 (ip), vehicle: carboxymethylcellulose (CMC) 87 % of control and 92 % of control | [7] 96 % of control | dose: 200.0 mg/kg/injection, schedule: Q04DX002 (ip), vehicle: carboxymethylcellulose (CMC) 101 % of control and 90 % of control | dose: 200.0 mg/kg/injection, schedule: Q04DX003 (ip), vehicle: carboxymethylcellulose (CMC) 100 % of control | dose: 400.0 mg/kg/injection, schedule: Q01DX009 (ip), vehicle: carboxymethylcellulose (CMC) 97 % of control and 90 % of control | [8] 101 % of control | dose: 400.0 mg/kg/injection, schedule: Q04DX002 (ip), vehicle: carboxymethylcellulose (CMC) 95 % of control and 90 % of control | dose: 400.0 mg/kg/injection, schedule: Q04DX003 (ip), vehicle: carboxymethylcellulose (CMC) 92 % of control
